Assay results from patent US20230295087A1, “AGONISTS OF ROR GAMMAt” (BRISTOL-MYERS SQUIBB COMPANY, priority 2019, published 2023).

Molecular target: T1, human RORgT (Homo sapiens, UniProt P51449)
T1 construct: expressed in transfected cells
T1 sequence (P51449 267-516): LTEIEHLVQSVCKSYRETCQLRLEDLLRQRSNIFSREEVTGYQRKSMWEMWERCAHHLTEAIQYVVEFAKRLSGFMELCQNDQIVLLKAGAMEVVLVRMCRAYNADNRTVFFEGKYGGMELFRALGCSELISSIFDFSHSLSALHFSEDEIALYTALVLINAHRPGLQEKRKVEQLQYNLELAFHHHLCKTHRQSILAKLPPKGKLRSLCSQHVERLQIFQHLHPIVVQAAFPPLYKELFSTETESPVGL
Assay: RORgT Gal4 Luciferase Reporter Gene Assay
Type: cell-based
Conditions: engineered Jurkat cells overexpressing RORgT (LBD or full length) fused with Gal4 Luc reporter; 18 hours at 37° C.; luminescence
Method: RORgT Gal4 Luciferase Reporter Gene Assay
25 µL of cryopreserved Jurkat cells over expressing ligand binding domain (LBD) of RORgT (aa267-516, NM_005060) and Gal4 Luc, or full length of human RORgT and Gal4 Luc, were plated in 384-well solid white cell culture plates (PerkinElmer 6007899), with a density of 10,000 cells/well in RPMI 1640 cell culture media (Gibco 11875-085). The media contained 0.1% BSA, 10 mM HEPES (Gibco 15360-080), […] Sodium Pyruvate (Gibco 11360-040), […] Hygromycin B (Invitrogen 10687-010), and […] Blasticidin (Invitrogen R210-01).
100 nL of compound at varying concentrations in 3-fold serial dilution, with final concentrations ranging from 40 µM to 0.67 nM, were added to the cells using Labcyte Echo 550. The compound and the cells were incubated for 18 hours at 37° C. in a cell culture incubator. Cells were then lysed with 15 uL of Steady-Glo Luciferase Assay reagent (Promega EZ550), followed by centrifuging the assay plates at 1500 RPM for 1 minute. Subsequently, the plates were read on the Envision (PerkinElmer). The inhibition of constitutive activity of RORgT achieved by graded concentrations of compound was calculated as a percentage of the luminescence signal window reduction over a control compound.

Structure (SMILES) | EC50
C[C@@H]1C[C@@H](C(=O)O)CC[C@@H]1C(=O)N1CC[C@@]2(S(=O)(=O)c3ccc(F)cc3)c3ccc(OCc4c(F)cccc4C(F)(F)F)cc3CC[C@@H]12 [Example 26, (1S,3R,4S)-4-[(3aR,9bR)-7-{[2-fluoro-6-(trifluoromethyl)phenyl]methoxy}-9b-(4-fluorobenzenesulfonyl)-1H,2H,3H,3aH,4H,5H,9bH-benzo[e]indole-3-carbonyl]-3-methylcyclohexane-1-carboxylic acid] | 27 nM
O=C(O)[C@H]1CC[C@](O)(C(=O)N2CC[C@@]3(S(=O)(=O)c4ccc(F)cc4)c4ccc(OCc5c(F)cccc5C(F)(F)F)cc4CC[C@@H]23)CC1 [Example 27, (1 s,4 s)-4-[(3aR,9bR)-7-{ [2-fluoro-6-(trifluoromethyl)phenyl]methoxy} -9b-(4-fluorobenzenesulfonyl)-1H,2H,3H,3aH,4H,5H,9bH-benzo[e]indole-3-carbonyl] -4-hydroxycyclohexane-1-carboxylic acid] | 99 nM
O=C1CC[C@@H](C(=O)N2CC[C@@]3(S(=O)(=O)c4ccc(F)cc4)c4ccc(OCc5c(F)cccc5C(F)(F)F)cc4CC[C@@H]23)N1Cc1ccc(F)cc1 [Example 28, (5S)-5-[(3aR,9bR)-7-{[2-fluoro-6-(trifluoromethyl)phenyl]methoxy} -9b-(4-fluorobenzenesulfonyl)-1H,2H,3H,3aH,4H,5H,9bH-benzo[e]indole-3-carbonyl]-1-[(4-fluorophenyl)methyl]pyrrolidin-2-one] | 8.2 nM
CC(C#N)CN1C(=O)CC[C@H]1C(=O)N1CC[C@@]2(S(=O)(=O)c3ccc(F)cc3)c3ccc(OCc4c(F)cccc4C(F)(F)F)cc3CC[C@@H]12 (stereo partly drawn) [Example 29, 3-[(2S)-2-[(3aR,9bR)-7-{[2-fluoro-6-(trifluoromethyl)phenyl]methoxy} -9b-(4-fluorobenzenesulfonyl)-1H,2H,3H,3aH,4H,5H9bH-benzo[e]indole-3-carbonyl]-5-oxopyrrolidin-1-yl]-2-methylpropanenitrile] | 3.6 nM
CN1C[C@@H](C(=O)N2CC[C@@]3(S(=O)(=O)c4ccc(F)cc4)c4ccc(OCc5c(F)cccc5C(F)(F)F)cc4CC[C@@H]23)NC1=O [Example 30, (4S)-4-[(3aR,9bR)-7-{[2-fluoro-6-(trifluoromethyl)phenyl]methoxy} -9b-(4-fluorobenzenesulfonyl)-1H,2H,3H,3aH,4H,5H,9bH-benzo[e]indole-3-carbonyl]-1-methylimidazolidin-2-one] | 3.9 nM
O=C(O)[C@H]1CC[C@H](C(=O)N2CC[C@@]3(S(=O)(=O)c4ccc(F)cc4)c4ccc(Cc5ccccc5)cc4CC[C@@H]23)CC1 [Example 34, (1r,4r)-4-[(3aR,9bR)-7-benzyl-9b-(4-fluorobenzenesulfonyl)-1H,2H,3H,3aH,4H,5H,9bH-benzo[e]indole-3-carbonyl]cyclohexane-1-carboxylic acid] | 10 nM
O=C(O)[C@H]1CC[C@H](C(=O)N2CC[C@@]3(S(=O)(=O)c4ccc(F)cc4)c4ccc(Oc5c(F)cccc5Cl)cc4CC[C@@H]23)CC1 [Example 37, (1r,4r)-4-[(3aR,9bR)-7-(2-chloro-6-fluorophenoxy)-9b-(4-fluorobenzenesulfonyl)-1H,2H,3H,3aH,4H,5H,9bH-benzo[e]indole-3-carbonyl]cyclohexane-1-carboxylic acid] | 3.3 nM
Cc1ccccc1Cc1ccc2c(c1)CC[C@H]1N(C(=O)[C@H]3CC[C@H](C(=O)O)CC3)CC[C@@]21S(=O)(=O)c1ccc(F)cc1 [Example 43, (1r,4r)-4-[(3aR,9bR)-9b-(4-fluorobenzenesulfonyl)-7-[(2-methylphenyl)methyl]-1H,2H,3H,3aH,4H,5H,9bH-benzo[e]indole-3-carbonyl]cyclohexane-1-carboxylic acid] | 2.7 nM
CC1(CN2CC[C@@]3(S(=O)(=O)c4ccc(F)cc4)c4ccc(OCc5c(F)cccc5C(F)(F)F)cc4CC[C@@H]23)CCNCC1 [Example 45, 4-{ [(3aR,9bR)-7-{ [2-fluoro-6-(trifluoromethyl)phenyl]methoxy} -9b-(4-fluorobenzenesulfonyl)-1H,2H,3H,3aH,4H,5H,9bH-benzo[e]indol-3-yl]methyl}-4-methylpiperidine] | 306 nM
Cc1ccccc1Cc1ccc2c(c1)CC[C@H]1N(C(=O)C3(C)CCS(=O)(=O)CC3)CC[C@@]21S(=O)(=O)c1ccc(F)cc1 [Example 46, 4-[(3aR,9bR)-9b-(4-fluorobenzenesulfonyl)-7-[(2-methylphenyl)methyl]-1H,2H,3H,3aH,4H,5H,9bH-benzo[e]indole-3-carbonyl]-4-methyl-1λ^6-thiane-1,1-dione] | 2.7 nM
Cc1ccccc1Cc1ccc2c(c1)CC[C@H]1N(C(=O)CC3CCS(=O)(=O)C3)CC[C@@]21S(=O)(=O)c1ccc(F)cc1 (stereo partly drawn) [Example 47, 3-{2-[(3aR,9bR)-9b-(4-fluorobenzenesulfonyl)-7-[(2-methylphenyl)methyl]-1H,2H,3H,3aH,4H,5H,9bH-benzo[e]indol-3-yl]-2-oxoethyl}-1λ^6-thiolane-1,1-dione] | 4.4 nM

The remaining lines, values ahead:

EC50 | Structure (SMILES)
1.6 nM | O=C(C1CCS(=O)(=O)CC1)N1CC[C@@]2(S(=O)(=O)c3ccc(F)cc3)c3ccc(Cc4ccccc4)cc3CC[C@@H]12 [Example 31, 4-[(3aR,9bR)-7-benzyl-9b-(4-fluorobenzenesulfonyl)-1H,2H,3H,3aH,4H,5H,9bH-benzo[e]indole-3-carbonyl]-1λ^6-thiane-1,1-dione]
1.8 nM | O=C(C1CCS(=O)(=O)CC1)N1CC[C@@]2(S(=O)(=O)c3ccc(F)cc3)c3ccc(Cc4c(F)cccc4Cl)cc3CC[C@@H]12 [Example 32, 4-[(3aR,9bR)-7-[(2-chloro-6-fluorophenyl)methyl]-9b-(4-fluorobenzenesulfonyl)-1H,2H,3H,3aH,4H,5H,9bH-benzo[e]indole-3-carbonyl]-1λ^6-thiane-1,1-dione]
10 nM | O=C(C1CCS(=O)(=O)CC1)N1CC[C@@]2(S(=O)(=O)c3ccc(F)cc3)c3ccc(COc4c(F)cccc4Cl)cc3CC[C@@H]12 [Example 33, 4-[(3aR,9bR)-7-[(2-chloro-6-fluorophenoxy)methyl]-9b-(4-fluorobenzenesulfonyl)-1H,2H,3H,3aH,4H,5H,9bH-benzo[e]indole-3-carbonyl]-1λ^6-thiane-1,1-dione]
4.1 nM | O=C(C1CCS(=O)(=O)CC1)N1CC[C@@]2(S(=O)(=O)c3ccc(F)cc3)c3ccc(Oc4ccccc4)cc3CC[C@@H]12 [Example 36]
1.1 nM | O=C(C1CCS(=O)(=O)CC1)N1CC[C@@]2(S(=O)(=O)c3ccc(F)cc3)c3ccc(Oc4c(F)cccc4Cl)cc3CC[C@@H]12 [Example 38, 4-[(3aR,9bR)-7-(2-chloro-6-fluorophenoxy)-9b-(4-fluorobenzenesulfonyl)-1H,2H,3H,3aH,4H,5H,9bH-benzo[e]indole-3-carbonyl]-1λ^6-thiane-1,1-dione]
2.7 nM | O=C(C1CCS(=O)(=O)CC1)N1CC[C@@]2(S(=O)(=O)c3ccc(F)cc3)c3ccc(Oc4c(F)cccc4C(F)(F)F)cc3CC[C@@H]12 [Example 39, 4-[(3aR,9bR)-7-[2-fluoro-6-(trifluoromethyl)phenoxy]-9b-(4-fluorobenzenesulfonyl)-1H,2H,3H,3aH,4H,5H,9bH-benzo[e]indole-3-carbonyl]-1λ^6-thiane-1,1-dione]
5.2 nM | O=C(O)[C@H]1CC[C@H](C(=O)N2CC[C@@]3(S(=O)(=O)c4ccc(F)cc4)c4ccc(Cc5ccc(F)cc5)cc4CC[C@@H]23)CC1 [Example 40, (1r,4r)-4-[(3aR,9bR)-9b-(4-fluorobenzenesulfonyl)-7-[(4-fluorophenyl)methyl]-1H,2H,3H,3aH,4H,5H,9bH-benzo[e]indole-3-carbonyl]cyclohexane-1-carboxylic acid]
1.2 nM | O=C(C1CCS(=O)(=O)CC1)N1CC[C@@]2(S(=O)(=O)c3ccc(F)cc3)c3ccc(Cc4ccc(F)cc4)cc3CC[C@@H]12 [Example 41, 4-[(3aR,9bR)-9b-(4-fluorobenzenesulfonyl)-7-[(4-fluorophenyl)methyl]-1H,2H,3H,3aH,4H,5H,9bH-benzo[e]indole-3-carbonyl]-1λ^6-thiane-1,1-dione]
1.8 nM | O=C(C1CCS(=O)(=O)CC1)N1CC[C@@]2(S(=O)(=O)c3ccc(F)cc3)c3ccc(Cc4ccc(Cl)cc4)cc3CC[C@@H]12 [Example 42, 4-[(3aR,9bR)-7-[(4-chlorophenyl)methyl]-9b-(4-fluorobenzenesulfonyl)-1H,2H,3H,3aH,4H,5H,9bH-benzo[e]indole-3-carbonyl]-1λ^6-thiane-1,1-dione]
1.9 nM | Cc1ccccc1Cc1ccc2c(c1)CC[C@H]1N(C(=O)C3CCS(=O)(=O)CC3)CC[C@@]21S(=O)(=O)c1ccc(F)cc1 [Example 44, 4-[(3aR,9bR)-9b-(4-fluorobenzenesulfonyl)-7-[(2-methylphenyl)methyl]-1H,2H,3H,3aH,4H,5H,9bH-benzo[e]indole-3-carbonyl]-1λ^6-thiane-1,1-dione]
